# According to patent publication US12090172B2, “Suicide gene therapeutic agent for brain tumors using pluripotent stem cell” (KEIO UNIVERSITY, priority 2017, dated 2024):
# Experiments:
# [1] = test system: NS/PCs expressing yCD-UPRT (TSCs (1), lentiviral vector); assay: Cell death induction by 5-FC added to the medium; type: cell-based, human; conditions: 1 μg/ml 5-FC added to the medium
# From the text: Secondary to quaternary NS/PCs differentiation-induced from the human iPS cells were collected by a centrifuge, disassembled into single cells using TrypLE Select, suspended in NS medium, inoculated into a low adhesive flask at a concentration of 1×10^5 cells/ml, infected with a CSIV-EF-yCD-UPRT-IRES2-hKO1 lentiviral vector at an MOI (multiplicity of infection) of 1 to 2 and cultured for 7 days with the medium replaced every 3 to 4 days. The obtained NS/PCs were infected with the CSIV-EF-yCD-UPRT-IRES2-hKO1 lentiviral vector at an MOI of 1 to 2 in the same way again to prepare therapeutic stem cells (TSCs (1)), that is, NS/PCs expressing yCD-UPRT. It was confirmed that the cell death of the NS/PCs expressing yCD-UPRT was induced by adding 1 μg/ml 5-FC (fluorocytosine) to the medium.
# human glioma cells (U87) [2] = assay: Suicide gene cell therapy with TSCs (1) expressing yCD-UPRT, transplantation model after tumor formation; type: in vivo; conditions: control group 2: TSC (−)/5FC (+) 5 mg/day, only U87 transplanted
# Procedure: First, 1×10^4 cells/2 μl U87-ffLuc was transplanted to the right striate body (2 mm away from the anterior fontanel to the right and 3 mm deep from the brain surface) of each T cell-deficient mouse (female BALB/c nude mouse, 20 g, 6 w) subjected to general anesthesia, and 1×10^6 cells/2 μl TSCs expressing yCD-UPRT (yCD-UPRT is introduced into NS/PCs with the lentiviral vector) were stereotactically transplanted to the same site 5 days later. The take of tumor cells was confirmed 2 days later with an IVIS, that is, an in vivo imaging system, and 500 μl of 5-FC (10 mg/ml) was then intraperitoneally administered to a treated group once per day for 2 weeks (TSC (+)/5-FC (+) 5 mg/day, n=9). Next, 500 μl of 1 M PBS was administered to a control group 1 for 2 weeks in the same way (control group 1: TSC (+)/5-FC (−), n=9). A group to which only U87-ffLuc was transplanted was also generated as another control group, and 500 μl of 5-FC (10 mg/ml) was intraperitoneally administered to this once per day for 2 weeks (control group 2: TSC (−)/5-FC (+) 5 mg/day, n=3). […]
# (§1) The survival analysis was performed while the luminescence imaging analysis (IVIS) of tumors was performed chronologically. […]
# human glioma cells (U87) [3] = assay: Suicide gene cell therapy with TSCs expressing yCD-UPRT with CRISPR/Cas9, transplantation model after tumor formation; type: in vivo, mouse; conditions: control group 2: TSC (−)/5FC (+), only U87 transplanted
# Procedure: First, 1×10^4 cells/2 μl U87-ffLuc was transplanted to the right striate body (2 mm away from the anterior fontanel to the right and 3 mm deep from the brain surface) of each T cell-deficient mouse (female BALB/c nude mouse, 20 g, 6 w) subjected to general anesthesia, and 1×10^6 cells/2 μl TSCs expressing yCD-UPRT (yCD-UPRT is introduced into iPS cells with CRISPR/Cas9) were stereotactically transplanted to the same site 5 days later. The take of tumor cells was confirmed 2 days later with an IVIS, that is, an in vivo imaging system, and further 2 days later, 500 μl of 5-FC (10 mg/ml) was intraperitoneally administered to a treated group once per day for 2 weeks (TSC (+)/5-FC (+), n=8). Then, 500 μl of 1 M PBS was administered to a control group 1 for 2 weeks in the same way (control group 1: TSC/5-FC (−), n=7). A group to which only U87-ffLuc was transplanted was also generated as another control group, and 500 μl of 5-FC (10 mg/ml) was intraperitoneally administered to this once per day for 2 weeks (control group 2: TSC (−)/5-FC (+), n=3).
# A method for evaluating tumors, the analysis of survival curves and the like were all performed in the same way as the above. […]
# as §1
# [4] = test system: Tet-induced iPS cells expressing yCD-UPRT; assay: Cell death induction by Dox and 5-FC added to the medium; type: cell-based, human; conditions: 1 μg/ml doxycycline (Dox) and 1 μg/ml 5-FC added to the medium
# Procedure: Human iPS cells were infected with the CSIV-yCD-UPRT-TRE-EF-KT lentiviral vector at an MOI of around 15 and cultured, the clones were then sorted with a cell sorter to obtain an iPS cell line expressing hKO1 steadily and highly. It was confirmed that the cell death of the Tet-induced iPS cells expressing yCD-UPRT was induced by adding 1 μg/ml doxycycline (Dox) and 1 μg/ml 5-FC to the medium.
# [5] = test system: NS/PCs expressing yCD-UPRT (TSCs (2), GAPDH gene region, CRISPR/Cas9); assay: Cell death induction by 5-FC added to the medium; type: cell-based, human; conditions: 1 μg/ml 5-FC added to the medium
# Procedure: Differentiation induction from iPS cells in which yCD-UPRT was incorporated into the GAPDH gene region to NS/PCs was performed to obtain secondary to quinary NS/PCs (TSCs (2)). Culture was performed with 2 μg/ml blasticidin S always added to the medium. It was confirmed that the cell death of the NS/PCs expressing yCD-UPRT was induced by adding 1 μg/ml 5-FC to the medium.
# human glioma cells (U87) [6] = assay: Suicide gene cell therapy with Tet-induced TSCs (3) expressing yCD-UPRT, mixture transplantation model; type: in vivo, mouse; conditions: control group 2: TSC (−)/5-FC (+)/Dox (+), only U87-ffLuc transplanted
# Procedure: First, 1×10^5 cells/2 μl U87-ffLuc and 5×10^5 cells/2 μl TSCs (3) (Tet-induced yCD-UPRT was introduced into iPS cells with the lentiviral vector) were mixed and stereotactically transplanted to the right striate body (2 mm away from the anterior fontanel to the right and 3 mm deep from the brain surface) of each T cell-deficient mouse (female BALB/c nude mouse, 20 g, 6 w) subjected to general anesthesia. Then, 500 μl of 5-FC (10 mg/ml) was intraperitoneally administered once per day for 2 weeks from the next day (treated group 1: TSC (+)/5-FC (+)/Dox (+), n=7). Next, 500 μl of 1 M PBS was administered to a control group 1 for 2 weeks in the same way (control group 1: TSC (+)/[…], n=9). A group to which only U87-ffLuc was transplanted was also generated as another control group, and 500 μl of 5-FC (10 mg/ml) was intraperitoneally administered to this once per day for 2 weeks (control group 2: TSC (−)/5-FC (+)/Dox (+), n=4). Feed containing 200 mg/kg of Dox was orally ingested. A method for evaluating tumors, the analysis of survival curves and the like were all performed in the same way as the above. […]
# Survival analysis was performed, while the luminescence imaging analysis (IVIS) of the tumors was performed chronologically. […]
# [7] = test system: Tet-induced NS/PCs expressing yCD-UPRT; assay: Cell death induction by Dox and 5-FC added to the medium; type: cell-based, human; conditions: 1 μg/ml Dox and 1 μg/ml 5-FC added to the medium
# Procedure: Differentiation induction from the Tet-induced iPS cells expressing yCD-UPRT to NS/PCs was performed to obtain secondary and tertiary Tet-induced NS/PCs expressing yCD-UPRT.
# human glioma cells (U87) [8] = assay: Suicide gene cell therapy with TSCs (1) expressing yCD-UPRT, mixture transplantation model; type: in vivo; conditions: control group 2: TSC (−)/5FC (+) 5 mg/day, only U87 transplanted
compound,measurement,setting,value
"Nc1nc(=O)[nH]cc1F [5-FC, 5-fluorocytosine]",cell death,[1],induced
same,average survival period,human glioma cells (U87) [2],21 days
same,average survival period,human glioma cells (U87) [3],21 days
same,cell death,[4],induced
same,cell death,[5],induced
same,average survival period,human glioma cells (U87) [6],19 days
same,cell death,[7],induced
same,average survival period,human glioma cells (U87) [8],21 days
